The values that follow come from PMC11995724, “Antibiotic target discovery by integrated phenotypic and activity-based profiling of electrophilic fragments” (Cell chemical biology, 2025).

The structures appear in SMILES notation. Converted amounts (≈) assume the structure as drawn.

One series has as its target T1, S. aureus FabH (Staphylococcus aureus, UniProt Q6GAU3).
T1 construct: recombinant, N-terminal His-tag, pET28a(+), E. coli BL21(DE3)
T1 sequence (Q6GAU3 1-313): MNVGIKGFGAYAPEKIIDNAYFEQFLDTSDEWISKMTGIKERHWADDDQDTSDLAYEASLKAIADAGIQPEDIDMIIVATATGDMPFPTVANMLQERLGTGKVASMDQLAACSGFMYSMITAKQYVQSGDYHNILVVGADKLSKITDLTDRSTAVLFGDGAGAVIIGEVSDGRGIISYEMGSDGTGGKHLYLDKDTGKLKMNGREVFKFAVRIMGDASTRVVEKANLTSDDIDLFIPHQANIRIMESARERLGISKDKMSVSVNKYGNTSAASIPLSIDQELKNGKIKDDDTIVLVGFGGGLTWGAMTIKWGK
Kind of series: in vitro targeting of purified protein (method not given). The series is classed as binding. The source says: in vitro targeting of purified protein (method not told in the main text) on S. aureus FabH | The S. aureus FabH […] can also be targeted by 10-F05 in vitro

Another series concerns the target T2, Sf_FabH (Shigella flexneri, UniProt Q83RS8).
T2 construct: gene fabH; recombinant, N-terminal His-tag, pET28a(+), E. coli BL21(DE3), Ni-NTA and Superdex 75
T2 sequence (Q83RS8 1-317): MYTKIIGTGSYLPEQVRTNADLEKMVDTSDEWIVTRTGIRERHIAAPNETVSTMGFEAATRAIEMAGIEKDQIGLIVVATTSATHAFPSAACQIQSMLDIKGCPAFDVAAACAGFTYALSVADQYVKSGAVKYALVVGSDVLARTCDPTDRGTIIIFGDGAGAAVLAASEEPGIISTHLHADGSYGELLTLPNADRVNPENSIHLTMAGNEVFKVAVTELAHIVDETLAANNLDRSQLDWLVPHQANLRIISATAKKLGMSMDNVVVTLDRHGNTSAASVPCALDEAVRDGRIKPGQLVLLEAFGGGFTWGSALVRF
Kind of series: in-gel fluorescence, competition with 5-TMRIA labelling. The format is binding. The settings on record: covalent; 1.5 uM protein in PBS, 1 h, 22 °C.

The target in the next series is T3, Sf_PdxY (Shigella flexneri, UniProt Q83KY1).
T3 construct: gene pdxY; recombinant, N-terminal His-tag, pET28a(+), E. coli BL21(DE3), Ni-NTA and Superdex 75
T3 sequence (Q83KY1 1-287): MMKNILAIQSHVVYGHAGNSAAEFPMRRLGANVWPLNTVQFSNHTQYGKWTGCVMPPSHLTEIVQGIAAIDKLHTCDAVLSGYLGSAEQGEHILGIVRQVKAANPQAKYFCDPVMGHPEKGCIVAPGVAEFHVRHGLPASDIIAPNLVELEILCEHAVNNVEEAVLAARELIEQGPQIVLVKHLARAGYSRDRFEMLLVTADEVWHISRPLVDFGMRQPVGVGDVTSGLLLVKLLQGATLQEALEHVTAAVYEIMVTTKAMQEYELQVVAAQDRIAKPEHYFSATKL
Described as above. The settings on record: covalent; 1.5 uM protein in PBS, 1 h, 22 °C. The series is classed as binding.

Another series is described as follows: in vitro. The settings on record: human, hek293t cells.
Series [1] concerns T4, Staphylococcus aureus SAD30.
T4 construct: SAD30
Kind of series: microbe, parasite or virus in culture. More on the design: species or system bacteria in LB, TSB or NB; broth microdilution MIC, OD600, lowest concentration with no growth.
Method: The minimum inhibitory concentrations (MICs) of compounds were measured using the broth microdilution method.[10] One stab using 10 µL tip from bacteria glycerol stock was inoculated into 5 mL of LB supplemented with selection antibiotics (Kanamycin for Keio collections and chloramphenicol for ASKA collections), and the culture was incubated at 37°C with shaking overnight. The overnight culture was diluted 1:10000 (~5 × 10^5 CFU/mL) and then dispensed in to a 96-well plate containing serial dilutions of indicated compounds in DMSO. The plate was incubated at 37°C for 16–20 h with shaking at 80 rpm and the OD600 was measured using Cytation 5 plate reader (BioTek). MIC was determined as the lowest concentration for which no bacterial growth was observed. LB was used as the growth media for all the bacteria strains unless otherwise mentioned. For S. aureus and A. baumannii strains, tryptic soy broth (TSB, BD, DF0370-17-3) was used as the growth media instead of LB. For P. aeruginosa and K. pneumoniae strains, nutrient broth (NB, RPI, N15100) was used as growth media. All MIC measurements were performed in at least biological duplicates.

Regarding `O=C(CCl)c1cn(-c2ccc(F)cc2)nn1` [10-F05], the “in vitro targeting of purified protein (method not given)” value on S. aureus FabH is “The S. aureus FabH [...] can also be targeted by 10-F05 in vitro”. Moreover, the “in-gel fluorescence, competition with 5-TMRIA labelling” value on Sf_FabH and on Sf_PdxY was “preincubation with 10-F05 resulted in a dose-dependent decrease in 5-TMRIA labeling of these proteins” each time. Also, in the series “in vitro”, the viability at 48 h, 25 µM turned out to be 89.9%. In addition, the MIC in series [1] was found to be 10 µM (≈ 2.4 µg/mL).

Regarding `Cc1cc(C(=O)CCl)c(C)n1Cc1ccccc1Cl` [10-P16, 2-chloro-1-{1-[(2-chlorophenyl)methyl]-2,5-dimethyl-1H-pyrrol-3-yl}ethan-1-one], in the series “in vitro”, the viability at 48 h, 25 µM was determined as 0.942%.

Consider `Cc1cc(C(=O)CCl)c(C)n1C(C)c1ccccc1` (stereo not drawn) [10-P17, 2-chloro-1-[2,5-dimethyl-1-(1-phenylethyl)-1H-pyrrol-3-yl]ethan-1-one], for which the viability at 48 h, 25 µM in “in vitro” was 113%.

`CN1C(=C(C#N)C(=O)CCl)N(C)c2ccccc21` [10-P18, 4-chloro-2-(1,3-dimethyl-2,3-dihydro-1H-1,3-benzodiazol-2-ylidene)-3-oxobutanenitrile]: the viability at 48 h, 25 µM in the series “in vitro” came out at 89.4%.

As for `O=S(=O)(CC=C(Cl)Cl)N1CCSSCC1` [10-P19, 5-(3,3-dichloroprop-2-ene-1-sulfonyl)-1,2,5-dithiazepane], in “in vitro”, the viability at 48 h, 25 µM is 127%.

As for `CN(C)C1=NC(N)=NC(=C(C#N)C(=O)CCl)N1` [10-P20, 2-[4-amino-6-(dimethylamino)-1,2-dihydro-1,3,5-triazin-2-ylidene]-4-chloro-3-oxobutanenitrile], the viability at 48 h, 25 µM in the series “in vitro” was determined as 104%.

Take `COc1ccccc1CN1C(=O)C=CC1=O` [10-P21, 1-[(2-methoxyphenyl)methyl]-2,5-dihydro-1H-pyrrole-2,5-dione]: the viability at 48 h, 25 µM in the series “in vitro” turned out to be 105%.

As to `CC(=O)c1c(C)[nH]c(C(=O)C(C)Cl)c1C` (stereo not drawn) [10-P22, 1-(4-acetyl-3,5-dimethyl-1H-pyrrol-2-yl)-2-chloropropan-1-one], in the series “in vitro”, the viability at 48 h, 25 µM was 103%.
